Format in all cases: binding, shrimp (Artemia salina)
In experiment [1] the test system is Small RNAs within Stop-POST5 complex. Nature of the experiment: AzAt photoincorporation into small RNAs (urea-PAGE, RNAse H fragments). Here is the method: FIG. 11 illustrates 8% Urea-PAGE resolution of small RNAs.
Photoaffinity labeling with [^3H]-AzAt. Samples in Buffer 4, typically 20 μL, were incubated in the dark (20 min for Stop-POST5 and 80S-IRES complexes, 2 min for release factors) with various concentrations of [^3H]-AzAt at 37° C., transferred to a UV-transparent cuvette which was covered with parafilm to prevent evaporation, and irradiated in a Rayonet photochemical reactor equipped with 300 nm UV lamps for 5 min at room temperature. This was followed by quenching with 2 mM DTT at 37° C. for 5 min under ambient light. The irradiation time gave complete photolysis of the phenyl azide moiety in AzAt. Photolysis was also complete at 5 min in the presence of 1 mM ataluren, ruling out internal filtering effects.
Stop-POST5 and 80S-IRES complexes. 1 μM solutions of either Stop-POST5 or 80S-S.IRES, determined by A260, were photolabeled by [^3H]-AzAt. The sample was then either directly purified by ultracentrifugation through a sucrose cushion to determine the photoincorporation stoichiometry in the complex, or subjected to phenol/chloroform extraction to determine the photoincorporation stoichiometry in the total RNA. To determine the photoincorporation background arising from incomplete removal of noncovalently bound photolyzed AzAt, AzAt was prephotolysed for 5 min before adding to the complex, followed by the 20 min incubation in dark at 37° C. and subsequent sucrose cushion purification or RNA extraction as described above.
(§1) RNaseH Fragment Assay. Total RNA was prepared from the ^3H-AzAt photoaffinity labeled ribosome by phenol-chloroform extraction. RNA: DNA duplexes were formed by incubating total RNA (0.2 μM) with an oligonucleotide pair (1 μM of each, sequences shown Table 1), flanking a specific RNA region, in 22.8 μL of water at 95° C. for 2 min, followed by annealing at 50° C. for 30 s and quenching on ice. Six units (1.2 μL) of RNase H (NEB) and 6 μl of 5×RNase H Reaction Buffer were next added to the RNA: DNA duplex and incubated at 37° C. for 1 hour, followed by phenol-chloroform extraction of RNA. The digested RNA was separated on 12% TBE-Urea PAGE gel, and the target band along with the adjacent upper and bottom gels were sliced by a 2 mm gel cutter. The gel slices were crushed and the ^3H labeled rRNA fragment was extracted in water by vigorously shaking at 70° C. for 30 min, or by overnight extraction in elution buffer (0.3M sodium acetate, 0.25% SDS, 1 mM EDTA). The slurry was removed by centrifugation and the eluted ^3H labeled rRNA in the supernatant was quantified. The stoichiometry of AzAt photoincorporation was calculated based on a gel recovery yield of 20±2%, determined using an authentic sample of [^3H]-Gln-tRNA^Gln.
Small RNAs. AzAt photoincorporation into the 4 small RNAs (CrPV-IRES, 5.8S rRNA, 5S rRNA, and tRNA) contained within POST5 was examined by one-dimensional (1D) urea-PAGE analysis, by RNA-Seq, and by RNAse H fragment assay (FIG. 11).

The test system of experiment [2] is rRNA fragments I-IV of Stop-POST5. Nature of the experiment: RNaseH fragment assay, Stop-POST5. Here is the method: as §1
(§2) Testing the functional pertinence of AzAt photolabeling of 18S A1195, 28S-A3093, 28S-A2672, and 28S-2669. An RNAse H fragment assay was employed to determine whether the potential functionally significant sites identified by LASER-seq correspond to ataluren binding sites relevant for termination activity. In this assay, oligonucleotide hybridization, RNase H digestion and polyacrylamide gel electrophoresis (PAGE) were used to determine the stoichiometry of [^3H]-AzAt photoincorporation into the three rRNA fragments that together include the four nucleotides of interest: Fragment I, 18S-A1195; Fragment II, 26S-A3093; Fragment III, 26S-A2669 and 26S-A2672 (Table 5). The separate addition of four potential competitors of AzAt binding (eRF1 alone, the stably bound eRF1.eRF3.GDPNP complex, ataluren, and the ataluren-like TRID GJ072) was used to test how these affected such photoincorporation. These experiments, the results of which are summarized in Table 5, were performed at two different AzAt concentrations. eRF1 and eRF1.eRF3.GDPNP effects were measured using 300 μM AzAt, paralleling the LASER-Seq PAL experiments.

Experiment [3] relates to rRNA fragments I-IV of 80S-IRES. Nature of the experiment: RNaseH fragment assay, 80S-IRES. The method, then:
as §1, §2

Where [4] appears, read: PAL, 300 μM AzAt, alone or plus competing ligand named as label.
[5] abbreviates: Stop-POST5, PAL, 300 μM AzAt, alone or plus competing ligand named as label.
[6] abbreviates: 80S-IRES, PAL, 300 μM AzAt, alone or plus competing ligand named as label.

The text below walks through data of patent US20230235374A1, “High Throughput Assays for Detecting Translation Readthrough Inducers” (The Trustees of the University of Pennsylvania, priority 2021, published 2023).

With “eRF1/eRF3/GDPNP: stably bound ternary complex of eRF1, eRF3 and GDPNP used as competing ligand”, the “effect on AzAt labeling of CrPV-IRES” value in experiment [1] (300 μM AzAt) was “partial but significant reduction”. Moreover, the “Photoincorporation yields into CrPV-IRES nts1-155” value in experiment [1] (PAL, 300 μM AzAt, alone (AzAt) or plus competing ligand named as label (eRF1 2 μM, eRF3 4 μM, GDPNP 1 mM)) amounted to 4.6 ± 1.4 mole %. In experiment [1] (setting [4]), the “Photoincorporation yields into 5S rRNA” value is listed as 1.3 ± 0.2 mole %, the “Photoincorporation yields into 5.8S rRNA” value is recorded as 0.80 ± 0.02 mole %, the “Photoincorporation yields into CrPV-IRES All” value was determined as 5.4 ± 0.6 mole % and the “Photoincorporation yields into CrPV-IRES nts156-221” value was determined as 2.9 ± 0.6 mole %. In experiment [1] (setting [4]), the “Photoincorporation yields into CrPV-IRES nts222-278” value was 0.08 ± 0.11 mole % and the “Photoincorporation yields into tRNA^Gln” value amounted to 2.2 ± 0.2 mole %. Further, the “effect on AzAt labeling of CrPV-IRES fragments 1-155 and 156-221” value in experiment [1] (RNAse H fragment assay) is on record as “Only minor decreases”. Besides, in experiment [2] (setting [5]), the “Photoincorporation yields into 26S-A2669:A2672/ III: 26S 2638-2702” value worked out at 0.19 ± 0.02 mole % and the “Photoincorporation yields into 26S-A3093/ II: 26S 3069-3113” value is on record as 0.18 ± 0.10 mole %. In addition, the “Photoincorporation yields into RNAse H Fragment IV: 26S 1413-1476” value in experiment [2] (Stop-POST5, PAL, 300 μM AzAt, alone or plus competing ligand named as label (eRF1 2 μM, eRF3 4 μM, GDPNP 1 mM)) is recorded as 0.20 ± 0.01%. Also, in experiment [2] (Stop-POST5, PAL, 300 μM AzAt, alone or plus competing ligand named as label (eRF1 2 μM, eRF3 4 μM, GDPNP)), the “Photoincorporation yields into 18S A1195/ I: 18S 1151-1206” value is 0.07 ± 0.03 mole %. Besides, in experiment [2] (Stop-POST5 complex), the “effect on AzAt photoincorporation into Fragments I, II, and III” value was “strongly inhibited”. For the same substance, in experiment [3] (setting [6]), the “Photoincorporation yields into 18S A1195/ I: 18S 1151-1206” value came out at 0.56 ± 0.06 mole %, the “Photoincorporation yields into 26S-A2669:A2672/ III: 26S 2638-2702” value worked out at 0.94 ± 0.23 mole % and the “Photoincorporation yields into 26S-A3093/ II: 26S 3069-3113” value was found to be 0.55 ± 0.12 mole %. Also, in experiment [3] (80S.IRES complex), the “effect on AzAt photoincorporation into Fragment I” value is “only partial inhibition”; the “effect on AzAt photoincorporation into Fragments II and III” value is on record as “essentially no inhibition”. For the same substance, the “Photoincorporation yields into RNAse H Fragment IV: 26S 1413-1476” value in experiment [3] (80S.IRES, PAL, 300 μM AzAt, alone or plus competing ligand named as label) came out at 0.30 ± 0.03%.
